# In patent publication US20230165867A1 (CHENGDU BAIYU PHARMACEUTICAL CO., LTD., priority 2020, published 2023):
# Like-named read-outs stand apart in the source and are kept apart here.
# How the values were obtained:
# [1] = Pharmacokinetic assay in ICR mice (i.v. and p.o.); assay type: in vivo; details: mouse, plasma, male ICR mice; for half-life: read-out: T½ (converted); for bioavailability: po 10 mg/kg vs iv 1 mg/kg
# Description: ICR mice were purchased from Beijing Vital River Laboratory Animal Technology Co., Ltd.
# 3.2 Experimental procedure • (1) Healthy male ICR mice (18-22 g) were prepared, with 18 mice for each compound. The mice were divided into 2 groups (an i.v. group and a p.o. group), with 9 mice per group. 3 mice were picked for blood collection at each time point. • (2) After the animals were fasted overnight (with free access to water), the compound of the present invention dissolved (or suspended) in a solvent of 5% DMSO and 95% 30% HP-β-CD (v:v) was administered via the tail vein (i.v., 1 mg/kg) or intragastrically (p.o., 10 mg/kg), respectively. • (3) For the i.v. group, 0.1 mL blood was collected from the submandibular vein 5 min, 15 min, 0.5 h, 1 h, 2 h, 4 h, 8 h, 12 h, and 24 h after administration, respectively, anticoagulated with EDTA-K2, and centrifuged at 4° C. for 5 min to obtain plasma, which was stored at -20° C. until testing. (4) For the p.o. group, 0.1 mL blood was collected from the submandibular vein before administration and 15 min, 0.5 h, 1 h, 2 h, 4 h, 6 h, 8 h, 12 h, and 24 h after administration, and treated in the same manner as that for the intravenous group. • (5) The concentration of the compound of the present invention in plasma was measured by LC/MS/MS. • (6) Calculation and fitting were performed with Analyst 1.6 from AB Company, and the results are shown in Table 3.
# DNA-PK kinase = target: T1, DNA-PK kinase (Homo sapiens, UniProt P78527); assay: Inhibition assay of DNA-PK kinase (Promega kit, ADP-Glo chemiluminescence); assay type: biochemical; details: 50 µM ATP, 37° C., 60 min; read-out: IC50 (nM), inhibitory activity on DNA-PK kinase
# T1 construct: purchased Promega V4107
# Description: The inhibitory activity of the compounds on DNA-PK kinase was measured by using a DNA-PK kinase assay kit (purchased from Promega, Cat.#: V4107, Lot: 0000366495). The results were quantified by chemiluminescence, and the detailed experimental protocol was as follows: • i. An ADP-fluorescence standard curve over a range of concentrations was plotted according to the kit instructions; • ii. […] The mixtures were mixed well, centrifuged (1000 rpm, 30 s), and incubated at 37° C. for 60 min; • iv. 5 µL of ADP-Glo™ Reagent was added to stop the reaction, which was then mixed well, centrifuged (1000 rpm, 30 s), and incubated at room temperature for 40 min; • v. 10 µL Kinase Detection Reagent was added, and the mixture was mixed well by shaking, centrifuged (1000 rpm, 30 s), and incubated at room temperature for 30 min; • vi. The […] was measured by using a microplate reader (Thermo fisher, Varioskan LUX).
IC50 (DNA-PK kinase) [nM],SMILES,also measured
10.1,"Cc1cc(S(C)(=O)=O)ccc1Nc1ncc2c(n1)n(C1CCOCC1)c(=O)n2C [Compound 1, 7-Methyl-2-((2-methyl-4-(methylsulfonyl)phenyl)amino)-9-(tetrahydro-2H-pyran-4-yl)-7,9-dihydro-8H-purin-8-one]",–
18.6,"Cc1cc(C(F)(F)F)ccc1Nc1ncc2c(n1)n(C1CCOCC1)c(=O)n2C [Compound 3, 7-Methyl-2-((2-methyl-4-(trifluoromethyl)phenyl)amino)-9-(tetrahydro-2H-pyran-4-yl)-7,9-dihydro-8H-purin-8-one]",–
8.3,"Cc1cc(Cl)ccc1Nc1ncc2c(n1)n(C1CCOCC1)c(=O)n2C [Compound 4, 2-((4-chloro-2-methylphenyl)amino)-7-methyl-9-(tetrahydro-2H-pyran-4-yl)-7,9-dihydro-8H-purin-8-one]",–
5.47,"Cc1cc(F)ccc1Nc1ncc2c(n1)n(C1CCOCC1)c(=O)n2C [Compound 7, 2-((4-fluoro-2-methylphenyl)amino)-7-methyl-9-(tetrahydro-2H-pyran-4-yl)-7,9-dihydro-8H-purin-8-one]",–
5.28,"Cc1ccc(C#N)cc1Nc1ncc2c(n1)n(C1CCOCC1)c(=O)n2C [Compound 15, 4-Methyl-3-((7-methyl-8-oxo-9-(tetrahydro-2H-pyran-4-yl)-8,9-dihydro-7H-purin-2-yl)amino)benzonitrile]",–
28.7,"Cc1cc(C#N)ncc1Nc1ncc2c(n1)n(C1CCOCC1)c(=O)n2C [Compound 17, 4-Methyl-5-((7-methyl-8-oxo-9-(tetrahydro-2H-pyran-4-yl)-8,9-dihydro-7H-purin-2-yl)amino)picolinonitrile]",–
39.2,Cc1[nH]c(=O)ccc1Nc1ncc2c(n1)n(C1CCOCC1)c(=O)n2C [Compound 40],–
9.8,"Cc1sc(C#N)cc1Nc1ncc2c(n1)n(C1CCOCC1)c(=O)n2C [Compound 43, 5-Methyl-4-((7-methyl-8-oxo-9-(tetrahydro-2H-pyran-4-yl)-8,9-dihydro-7H-purin-2-yl)amino)thiophene-2-carbonitrile]",–
13.5,COC(=O)c1cc(C)c(Nc2ncc3c(n2)n(C2CCOCC2)c(=O)n3C)cc1C#N [Compound 45],–
0.99,"Cc1cc(C(=O)O)c(C#N)cc1Nc1ncc2c(n1)n(C1CCOCC1)c(=O)n2C [Compound 46, 2-cyano-5-methyl-4-((7-methyl-8-oxo-9-(tetrahydro-2H-pyran-4-yl)-8,9-dihydro-7H-purin-2-yl)amino)benzoic acid]",–
3.69,"Cc1cc(C(N)=O)c(C#N)cc1Nc1ncc2c(n1)n(C1CCOCC1)c(=O)n2C [Compound 47, 2-cyano-5-methyl-4-((7-methyl-8-oxo-9-(tetrahydro-2H-pyran-4-yl)-8,9-dihydro-7H-purin-2-yl)amino)benzamide]",–
14.8,"Cc1cc(=O)[nH]cc1Nc1ncc2c(n1)n(C1CCOCC1)c(=O)n2C [Compound 55, 7-Methyl-2-((4-methyl-6-oxo-1,6-dihydropyridin-3-yl)amino)-9-(tetrahydro-2H-pyran-4-yl)-7,9-dihydro-8H-purin-8-one]",–
14.3,"Cc1cc(=O)n(C)cc1Nc1ncc2c(n1)n(C1CCOCC1)c(=O)n2C [Compound 56, 2-((1,4-Dimethyl-6-oxo-1,6-dihydropyridin-3-yl)amino)-7-methyl-9-(tetrahydro-2H-pyran-4-yl)-7,9-dihydro-8H-purin-8-one]",–

# The next lines start with the compound.
SMILES,IC50 (DNA-PK kinase) [nM],also measured
"[2H]C([2H])([2H])n1c(=O)n(C2CCOCC2)c2nc(Nc3ccc(C#N)cc3C)ncc21 (single isomer, unassigned) [Compound 6, 3-Methyl-4-((7-(methyl-d3)-8-oxo-9-(tetrahydro-2H-pyran-4-yl)-8,9-dihydro-7H-purin-2-yl)amino)benzonitrile]",–,"AUC ([1]; iv, 1 mg/kg): 82.4 ng·h/mL; half-life ([1]; iv, 1 mg/kg): 17.9 min; bioavailability [1]: 179%; AUC ([1]; po, 10 mg/kg): 1480 ng·h/mL; Cmax ([1]; po, 10 mg/kg): 1220 ng/mL; half-life ([1]; po, 10 mg/kg): 57.8 min"
COc1ccc(Nc2ncc3c(n2)n(C2CCOCC2)c(=O)n3C)c(C)n1 [Compound 21],53,–
COC(=O)c1cc(Nc2ncc3c(n2)n(C2CCOCC2)c(=O)n3C)c(C)s1 [Compound 22],1.36,–
"Cc1cc(C(=O)NC(C)C)ccc1Nc1ncc2c(n1)n(C1CCOCC1)c(=O)n2C [Compound 30, N-Isopropyl-3-methyl-4-((7-methyl-8-oxo-9-(tetrahydro-2H-pyran-4-yl)-8,9-dihydro-7H-purin-2-yl)amino)benzamide]",66.6,–
"Cc1cc(C(=O)NC2CC2)ccc1Nc1ncc2c(n1)n(C1CCOCC1)c(=O)n2C [Compound 31, N-Cyclopropyl-3-methyl-4-((7-methyl-8-oxo-9-(tetrahydro-2H-pyran-4-yl)-8,9-dihydro-7H-purin-2-yl)amino)benzamide]",31,–
"CNC(=O)c1cc(C)c(Nc2ncc3c(n2)n(C2CCOCC2)c(=O)n3C)cc1F [Compound 36, 2-Fluoro-N,5-dimethyl-4-((7-methyl-8-oxo-9-(tetrahydro-2H-pyran-4-yl)-8,9-dihydro-7H-purin-2-yl)amino)benzamide]",17.9,–
"[2H]C([2H])([2H])NC(=O)c1cc(C)c(Nc2ncc3c(n2)n(C2CCOCC2)c(=O)n3C)cc1F [Compound 37, 2-Fluoro-5-methyl-N-(methyl-d3)-4-((7-methyl-8-oxo-9-(tetrahydro-2H-pyran-4-yl)-8,9-dihydro-7H-purin-2-yl)amino)benzamide]",11.9,–
Cc1sc(C(=O)O)cc1Nc1ncc2c(n1)n(C1CCOCC1)c(=O)n2C [Compound 41],–,"AUC ([1]; iv, 1 mg/kg): 357 ng·h/mL; half-life ([1]; iv, 1 mg/kg): 33 min; bioavailability [1]: 42.3%; AUC ([1]; po, 10 mg/kg): 1500 ng·h/mL; Cmax ([1]; po, 10 mg/kg): 2710 ng/mL; half-life ([1]; po, 10 mg/kg): 293 min"
"Cc1cc(C(N)=O)c(O)cc1Nc1ncc2c(n1)n(C1CCOCC1)c(=O)n2C [Compound 50, 2-Hydroxy-5-methyl-4-((7-methyl-8-oxo-9-(tetrahydro-2H-pyran-4-yl)-8,9-dihydro-7H-purin-2-yl)amino)benzamide]",12.7,–
COC(=O)c1cc(C)c(Nc2ncc3c(n2)n(C2CCOCC2)c(=O)n3C)cc1F [Compound 51],34.1,–
"Cn1c(=O)n(C2CCOCC2)c2nc(Nc3cc(F)c(C(N)=O)cc3Cl)ncc21 [Compound 59, 5-Chloro-2-fluoro-4-((7-methyl-8-oxo-9-(tetrahydro-2H-pyran-4-yl)-8,9-dihydro-7H-purin-2-yl)amino)benzamide]",12.1,–
"Cc1cc(C(N)=O)c(F)c(C)c1Nc1ncc2c(n1)n(C1CCOCC1)c(=O)n2C [Compound 60, 2-Fluoro-3,5-dimethyl-4-((7-methyl-8-oxo-9-(tetrahydro-2H-pyran-4-yl)-8,9-dihydro-7H-purin-2-yl)amino)benzamide]",29.7,–
"Cc1cc(C(N)=O)c(F)cc1Nc1ncc2c(n1)n(C1CCOCC1)c(=O)n2C(C)C [Compound 63, 2-Fluoro-4-((7-isopropyl-8-oxo-9-(tetrahydro-2H-pyran-4-yl)-8,9-dihydro-7H-purin-2-yl)amino)-5-methylbenzamide]",50.5,–
"Cc1cc(C(N)=O)c(F)cc1Nc1ncc2c(n1)n(C1CCOCC1)c(=O)n2C1CC1 [Compound 64, 4-((7-cyclopropyl-8-oxo-9-(tetrahydro-2H-pyran-4-yl)-8,9-dihydro-7H-purin-2-yl)amino)-2-fluoro-5-methylbenzamide]",3.34,–
"Cc1cc(C(N)=O)c(F)cc1Nc1ncc2c(n1)n(C1CCC(O)C1)c(=O)n2C (stereo not shown) [Compound 67, 2-Fluoro-4-((9-(3-hydroxycyclopentyl)-7-methyl-8-oxo-8,9-dihydro-7H-purin-2-yl)amino)-5-methylbenzamide]",2.96,–
"Cc1cc(C(N)=O)c(F)cc1Nc1ncc2c(n1)n(C1CCCCC1)c(=O)n2C [Compound 68, 4-((9-cyclohexyl-7-methyl-8-oxo-8,9-dihydro-7H-purin-2-yl)amino)-2-fluoro-5-methylbenzamide]",0.01,–
"CO[C@H]1CC[C@@H](n2c(=O)n(C)c3cnc(Nc4cc(F)c(C(N)=O)cc4C)nc32)CC1 [Compound 70, 2-Fluoro-4-((9-(cis-4-methoxycyclohexyl)-7-methyl-8-oxo-8,9-dihydro-7H-purin-2-yl)amino)-5-methylbenzamide]",4.14,–
